# Measured values published in US10294202B2, “Pyrrolidinones as herbicides” (FMC Corporation, priority 2013, dated 2019).
# Columns and labels:
# ryegrass, Italian = test: Test C pre-/postemergence herbicide test; format: in vivo, Lolium multiflorum; conditions: Preemergence
# Summary of the method: (§1)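 Pre-emergence: seeds sown in loam/sand blend and treated with compound in surfactant-containing solvent. Post-emergence: plants at 2–18 cm (1- to 4-leaf stage) in peat-based medium sprayed with the same formulation. Visual rating versus controls after 13–15 days in greenhouse, scale 0 (no effect) to 100 (complete control).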
# nutsedge, yellow = test: Test C pre-/postemergence herbicide test; format: in vivo, Cyperus esculentus; conditions: Preemergence
# Summary of the method: as §1
# soybean = test: Test C pre-/postemergence herbicide test; format: in vivo, Glycine max; conditions: Preemergence
# From the text: (§2) Seeds of plant species selected from blackgrass (Alopecurus myosuroides), ryegrass, Italian (Italian ryegrass, Lolium multiflorum), wheat (winter wheat, Triticum aestivum), galium (catchweed bedstraw, Galium aparine), corn (Zea mays), crabgrass, large (large crabgrass, Digitaria sanguinalis), foxtail, giant (giant foxtail, Setaria faberii), johnsongrass (Sorghum halepense), lambsquarters (Chenopodium album), morningglory (Ipomoea coccinea), nutsedge, yellow (yellow nutsedge, Cyperus esculentus), pigweed (Amaranthus retroflexus), ragweed (common ragweed, Ambrosia elatior), soybean (Glycine max), barnyardgrass (Echinochloa crus-galli), oilseed rape (Brassica napus), waterhemp (common waterhemp, Amaranthus rudis), kochia (Kochia scoparia), oat, wild (wild oat, Avena fatua), surinam grass (Brachiaria decumbens), foxtail, green (green foxtail, Setaria viridis), goosegrass (Eleusine indica), bromegrass, downy (downy bromegrass, Bromus tectorum), nightshade (eastern black nightshade, Solanum ptycanthum), cocklebur (common cocklebur, Xanthium strumarium), cupgrass, woolly (woolly cupgrass, Eriochloa villosa), bermudagrass (Cynodon dactylon), sunflower, (common oilseed sunflower, Helianthus annuus), Russian thistle (Salsola kali) and velvetleaf (Abutilon theophrasti) were planted into a blend of loam soil and sand and treated preemergence with test chemicals formulated in a non-phytotoxic solvent mixture which included a surfactant. At the same time, plants selected from these crop and weed species and also barley (winter barley, Hordeum vulgare), […]), chickweed (common chickweed, Stellaria media), deadnettle (henbit deadnettle, Lamium amplexicaule), and canarygrass (littleseed canarygrass, Phalaris minor) were planted in pots containing Redi-Earth® planting medium (Scotts Company, 14111 Scottslawn Road, Marysville, Ohio 43041) comprising spaghnum peat moss, vermiculite, wetting agent and starter nutrients and treated with postemergence applications of test chemicals formulated in the same manner. Plants ranged in height from 2 to 18 cm (1- to 4-leaf stage) for postemergence treatments. Treated plants and controls were maintained in a greenhouse for 13 to 15 days, after which time all species were compared to controls and visually evaluated. Plant response ratings, summarized in Table C, are based on a scale of 0 to 100 where 0 is no effect and 100 is complete control. A dash (-) response means no test result.
# barnyardgrass [1] = test: Test A pre-/postemergence herbicide test; format: in vivo, Echinochloa crus-galli; conditions: for Plant response rating, Barnyardgrass: 0 to 100 scale
# Summary of the method: (§3)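 Seeds in loam–sand blend received preemergence directed soil spray; separately, plants 2–10 cm at one- to two-leaf stage received postemergence spray, both with test chemicals in non-phytotoxic solvent with surfactant. After ~10 days in greenhouse, injury rated visually against untreated controls, 0 (no effect) to 100 (complete control).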
# corn [2] = test: Test A pre-/postemergence herbicide test; format: in vivo, Zea mays; conditions: Postemergence
# Summary of the method: as §3
# giant foxtail = test: Test A pre-/postemergence herbicide test; format: in vivo, Setaria faberii; conditions: for Plant response rating, Foxtail, Giant: 0 to 100 scale
# Summary of the method: as §3
# waterhemp = test: Test C pre-/postemergence herbicide test; format: in vivo, Amaranthus rudis; conditions: Preemergence
# From the text: as §2
# lambsquarters = test: Test C pre-/postemergence herbicide test; format: in vivo, Chenopodium album; conditions: Preemergence
# Summary of the method: as §1
# corn [3] = test: Test C pre-/postemergence herbicide test; format: in vivo, Zea mays; conditions: Preemergence
# Summary of the method: as §1
# barnyardgrass [4] = test: Test C pre-/postemergence herbicide test; format: in vivo, Echinochloa crus-galli; conditions: Preemergence
# Summary of the method: as §1
# [5] = 31 g ai/ha, scale 0 to 100, 0 is no effect and 100 is complete control
# [6] = 62 g ai/ha, scale 0 to 100 (0 no effect, 100 complete control)
# [7] = 125 g ai/ha, scale 0 to 100 (0 no effect, 100 complete control)
# [8] = 125 g ai/ha, visual rating, 0 no effect, 100 complete control, approximately 10 days, preemergence
# [9] = Postemergence, 125 g ai/ha, 0 is no effect, 100 is complete control
# [10] = preemergence, 500 g ai/ha, 0 is no effect and 100 is complete control
smiles,measurement,setting,value
O=C1NCC(c2cccc(C(F)F)c2)C1C(=O)Nc1cccc(F)c1F (racemic) [Compound 211],"Ryegrass, Italian plant response rating","ryegrass, Italian; [5]",0
same,"Ryegrass, Italian plant response rating","ryegrass, Italian; [6]",35
same,"Plant response rating, Ryegrass, Italian","ryegrass, Italian; [7]",40
same,"Plant response rating (scale of 0 to 100), Ryegrass, Italian","ryegrass, Italian; 250 g ai/ha",50
same,"Nutsedge, Yellow plant response rating","nutsedge, yellow; [5]",0
same,"Nutsedge, Yellow plant response rating","nutsedge, yellow; [6]",0
same,"Plant response rating, Nutsedge, Yellow","nutsedge, yellow; [7]",0
same,"Plant response rating (scale of 0 to 100), Nutsedge, Yellow","nutsedge, yellow; 250 g ai/ha",10
same,Soybean plant response rating,soybean; [5],0
same,Soybean plant response rating,soybean; [6],0
same,"Plant response rating, Soybean",soybean; [7],5
same,"Plant response rating (scale of 0 to 100), Soybean",soybean; 250 g ai/ha,0
same,"Plant response rating, Barnyardgrass",barnyardgrass [1]; [8],80
same,"Plant response rating, Barnyardgrass",barnyardgrass [1]; [9],90
same,"Barnyardgrass plant response rating (0 to 100 scale, 0 is no effect, 100 is complete control)","barnyardgrass [1]; Postemergence, 500 g ai/ha",90
same,"Plant response rating, Barnyardgrass",barnyardgrass [1]; [10],90
same,"Plant response rating, Corn","corn [2]; 125 g ai/ha, 0 to 100 scale, 0 is no effect, 100 is complete control",30
same,"Corn plant response rating (0 to 100 scale, 0 is no effect, 100 is complete control)",corn [2]; 500 g ai/ha,70
same,"Plant response rating, Foxtail, Giant",giant foxtail; [8],80
same,"Plant response rating, Foxtail, Giant",giant foxtail; [9],70
same,"Foxtail, Giant plant response rating (0 to 100 scale, 0 is no effect, 100 is complete control)","giant foxtail; Postemergence, 500 g ai/ha",90
same,"Plant response rating, Foxtail, Giant",giant foxtail; [10],90
same,Waterhemp plant response rating,waterhemp; [5],85
same,Waterhemp plant response rating,waterhemp; [6],75
same,"Plant response rating, Waterhemp",waterhemp; [7],100
same,"Plant response rating (scale of 0 to 100), Waterhemp",waterhemp; 250 g ai/ha,90
same,Lambsquarters plant response rating,lambsquarters; [5],100
same,Lambsquarters plant response rating,lambsquarters; [6],85
same,"Plant response rating, Lambsquarters",lambsquarters; [7],100
same,"Plant response rating (scale of 0 to 100), Lambsquarters",lambsquarters; 250 g ai/ha,100
same,Corn plant response rating,corn [3]; [5],0
same,Corn plant response rating,corn [3]; [6],25
same,"Plant response rating, Corn",corn [3]; [7],0
same,"Plant response rating (scale of 0 to 100), Corn",corn [3]; 250 g ai/ha,80
same,Barnyardgrass plant response rating,barnyardgrass [4]; [5],30
same,"Plant response rating, Barnyardgrass","barnyardgrass [4]; 62 g ai/ha, scale 0 to 100",65
same,"Plant response rating, Barnyardgrass",barnyardgrass [4]; [7],85
same,"Plant response rating (scale of 0 to 100; 0 is no effect, 100 is complete control), Barnyardgrass",barnyardgrass [4]; 250 g ai/ha,90
